Several values for one entry are separate records, joined by “and”; a condition that tells them apart may be missing. Equal values may be shown once. Read-outs that look alike come from different tables or passages of the source.
Assays:
[1] = parameters: method as in PMID 25922266; details: rat plasma; cited from earlier work
[2] = system: trypomastigote forms of T. cruzi, Y strain; test: Trypanocidal activity on trypomastigote forms (viability by counting); format: cell-based, Trypanosoma cruzi; details: for IC50: Trypanosoma cruzi, Y strain, 24 h; for Selectivity Index (SI) Trypomastigote: ratio CC50 (LLC-MK2) / IC50 trypomastigote
Method: (§1) Initially, the prepared esters were submitted to in vitro tests using the microdilution technique in 96-well plates to evaluate the trypanocidal activity against the epimastigote evolutionary form at different concentrations (200–3.12 μg/mL). Then, the compounds with the best activity were tested against the trypomastigote form of T. cruzi. In both assays, IC50 values were calculated; a compound is considered to have trypanocidal activity when IC50 <40 μM [21]. The results are expressed in Table 1.
Trypomastigote forms were obtained by infecting LLC-MK2 cells with the parasite; in this way, the cells were incubated for 24 h in T-25/75 cm^2 flasks at 37 °C in an atmosphere with 5% CO2 in DMEM medium supplemented with 2% FBS and 1% antibiotic. Subsequently, the trypomastigote forms were distributed in 96-well plates treated with piplartine analogues at different concentrations (200; 100; 50; 25; 12.5; 6.25; 3.12 μg/mL) and incubated at 37 °C for 24 h. The assessment of cell viability was performed by counting, and the IC50 was defined.

[3] = system: epimastigote forms of T. cruzi; parameters: method as in doi:10.1007/s00044-008-9161-9; details: read-out: IC50 growth of epimastigote forms; cited from earlier work
[4] = system: epimastigote forms of T. cruzi, Y strain; test: Trypanocidal activity on epimastigote forms (growth inhibition, Neubauer chamber count); format: cell-based, Trypanosoma cruzi; details: for IC50: Trypanosoma cruzi; for Selectivity Index (SI) Epimastigote: ratio CC50 (LLC-MK2) / IC50 epimastigote
Method: as §1
Initially, epimastigotes were cultured and distributed in 96-well plates at a density of 10^6 cells/mL in liver infusion tryptose medium supplemented with 10% fetal bovine serum (FBS) and 1% antibiotic. Then, the cells were treated with piplartine analogues at different concentrations and incubated at 28 °C for 24 h. To quantify the growth inhibition of the parasites, a Neubauer chamber was used, and the IC50 was defined.

[5] = In vitro cytotoxicity, MTT assay; format: cell-based, Rhesus monkey; details: Rhesus monkey, MTT, 24 h, read-out: LLCK-MK2 CC50
Method: The compounds were considered selective for the parasite when SI ≥ 10 [21]. The results are expressed in Table 2.
For the cytotoxicity analysis, the (3-[4,5-dimethylthiazol-2-yl]-2,5 diphenyl tetrazolium bromide) (MTT) assay was used, in which the LLC-MK2 cells were cultured in Dulbecco’s Modified Eagle Medium (DMEM), then exposed to the piplartine analogues at different concentrations (25–200 μg/mL) and incubated for 24 h at 37 °C. Then MTT was added, and the cells were incubated for 4 h, after which 10% sodium dodecyl sulfate was added. […] To calculate the relative cell viability, cells treated only with sterile phosphate-buffered saline were used as a negative control. The experiments were conducted in triplicates.

[6] = system: amastigote form of the parasite; parameters: method as in PMID 25880257; details: cited from earlier work
[7] = system: epimastigote form of T. cruzi; parameters: method as in PMID 31775321; details: cited from earlier work

Compound | IC50 ([4]; Y strain, 24 h) | Selectivity Index (SI) Epimastigote [4] | CC50 at 24 h [5] | CC50 at 24 h ([5]; LLC-MK2 renal epithelial cells) | also measured
COc1cc(C=CC(=O)O)cc(OC)c1OC [3,4,5-trimethoxycinnamic acid] |  |  |  |  | bioavailability [1]: high bioavailability; oral absorption [1]: rapid oral absorption
O=C(Cn1ccnc1[N+](=O)[O-])NCc1ccccc1 [Benznidazole, reference compound] | 23 µg/mL and 115 µM |  |  |  | IC50 [2]: 32.3 µg/mL and 161 µM; IC50 [3]: 42.7 µM
COC(=O)/C=C/c1cc(OC)c(OC)c(OC)c1 [Compound 1, (E)-Methyl 3-(3,4,5-trimethoxyphenyl)acrylate] | 31.5 µg/mL and 125 µM | 4.01 | 126 µg/mL and 501 µM |  | 
CCOC(=O)/C=C/c1cc(OC)c(OC)c(OC)c1 [Compound 2] | 85.7 µg/mL and 322 µM | >2.3 | > 200 µg/mL and > 751 µM |  | 
CCCOC(=O)/C=C/c1cc(OC)c(OC)c(OC)c1 [Compound 3] | 90.1 µg/mL and 321 µM | 1.6 | 148 µg/mL and 526 µM |  | 
COc1cc(/C=C/C(=O)OC(C)C)cc(OC)c1OC [Compound 4] | 74.5 µg/mL and 266 µM | >2.7 | > 200 µg/mL and > 714 µM |  | 
CCCCCOC(=O)/C=C/c1cc(OC)c(OC)c(OC)c1 [Compound 5] | 20.2 µg/mL and 65.5 µM | >9.9 | > 200 µg/mL and > 649 µM |  | 
CCCCCCCCCCOC(=O)/C=C/c1cc(OC)c(OC)c(OC)c1 [Compound 6] |  |  | > 200 µg/mL and > 528 µM |  | trypanocidal activity against epimastigote form (in words) ([4]; Y strain): suppressed the trypanocidal activity; Epimastigote IC50 ([4]; Y strain, 24 h): n*
COc1ccc(COC(=O)/C=C/c2cc(OC)c(OC)c(OC)c2)cc1 [Compound 7] | 56.4 µg/mL and 157 µM | 3.5 |  | 196 µg/mL and 547 µM | 
COc1cccc(COC(=O)/C=C/c2cc(OC)c(OC)c(OC)c2)c1 [Compound 8] | 40.3 µg/mL and 112 µM | 2.5 |  | 100 µg/mL and 280 µM | IC50 [2]: 64.4 µg/mL and 180 µM; Selectivity Index (SI) Trypomastigote [2]: 1.6
COc1cc(/C=C/C(=O)OCc2ccc(C)cc2)cc(OC)c1OC [Compound 9] | 61.8 µg/mL and 180 µM | 3.0 |  | 183 µg/mL and 534 µM | IC50 [2]: 39.9 µg/mL and 123 µM; Selectivity Index (SI) Trypomastigote [2]: 4.6
COc1cc(/C=C/C(=O)OCc2ccccc2)cc(OC)c1OC [Compound 10] | 40 µg/mL and 122 µM | 4.6 |  | 183 µg/mL and 557 µM | IC50 [2]: 13.4 µg/mL and 40.8 µM; Selectivity Index (SI) Trypomastigote [2]: 13.7
C=C(C)[C@@H]1CC=C(COC(=O)/C=C/c2cc(OC)c(OC)c(OC)c2)CC1 [Compound 12] | 70.1 µg/mL and 188 µM | 1.5 |  | 106 µg/mL and 284 µM | IC50 [2]: 38.7 µg/mL and 104 µM; Selectivity Index (SI) Trypomastigote [2]: 2.7
COc1cc(C=CC(=O)OC2CC3CCC2(C)C3(C)C)cc(OC)c1OC (stereo not shown) [Compound 13] | 155 µg/mL and 414 µM | 0.5 |  | 71.2 µg/mL and 190 µM | 
CCOC(=O)/C=C/c1ccc(O)c(O)c1 [ethyl caffeate] |  |  |  |  | IC50 [6]: 18.3 µM
COC(=O)/C=C/c1ccc(O)cc1 [methyl p-coumarate] |  |  |  |  | IC50 [7]: 601 µM
COc1cc(/C=C/C(=O)N2CCC=CC2=O)cc(OC)c1OC [piplartine] |  |  |  |  | IC50 [3]: 21 µM

— article PMC10254306, “Piplartine-Inspired 3,4,5-Trimethoxycinnamates: Trypanocidal, Mechanism of Action, and In Silico Evaluation” (Molecules, 2023)
